{"source": "patent US6162832A", "about": "“2-Phenoxyaniline derivatives” (Taisho Pharmaceutical Co., Inc., priority 1997, dated 2000)", "target": "T1, Na^+ /Ca^2+ Exchange System (Canis lupus familiaris, UniProt P23685)", "T1 construct": "Sarcolemmal vesicles prepared from the removed dog ventricular muscles; from tissue; host or cells: dog ventricular muscle, sarcolemmal vesicles", "assay": "Inhibitory Action on a Na^+ /Ca^2+ Exchange System using Cardiac Sarcolemmal Vesicles", "format": "biochemical", "conditions": "10 s; 1 μM test drug; dog ventricular sarcolemmal vesicles; 45Ca uptake, 10 seconds; remaining activity vs vehicle-treated group; read-out: Na^+ /Ca^2+ exchange activity (% of control)", "protocol": "Inhibitory Action on a Na^+ /Ca^2+ Exchange System using Cardiac Sarcolemmal Vesicles Sarcolemmal vesicles prepared from the removed dog ventricular muscles according to the method described in the literature (L. R. Jones, Methods, Enzymol., 1988, 157, pp. 85) were used. A Na^+ /Ca^2+ exchange activity using the sarcolemmal vesicles was measured according to the method described in the literature (K. D. Philipson, et al., J. Biol. Chem., 1980, 255, pp. 6880). First, the sarcolemmal vesicles were suspended in a sodium-containing solution [160 mM sodium chloride, 20 mM Tris-hydrochloric acid (pH 7.4)] to make up to a protein concentration of 1.5 mg/ml, and allowed to stand for an hour to load Na^+ in the sarcolemmal vesicles. To 2.5 μl of the sarcolemmal vesicles was added 125 μl of a [^45 Ca]-calcium chloride solution [20 μM [^45 Ca]-calcium chloride, 160 mM potassium chloride and 20 mM Mops-Tris (pH 7.4)], and after 10 seconds, 900 μl of an ice-cooled lanthanum chloride solution [10 mM lanthanum chloride, 160 mM potassium chloride and 20 mM Mops-Tris (pH 7.4)] was added. The sarcolemmal vesicles were recovered on a nitrocellulose filter by suction filtration and washed three times with 900 μl of a lanthanum chloride solution. The […] of Ca^2+ uptake in the sarcolemmal vesicles was determined by measuring a ^45 Ca radioactivity by a scintillator. In addition, a Na^+ /Ca^2+ exchange activity-independent Ca^2+ uptake in the sarcolemmal vesicles was determined by carrying out the same procedure using a potassium-containing solution [160 mM potassium chloride, 20 mM Tris-hydrochloric acid (pH 7.4)] instead of the sodium-containing solution. The test compound was used as a dimethyl sulfoxide solution thereof, and its inhibitory effect was evaluated in comparison with the vehicle-treatedgroup.", "note": "Where a name gives a salt, the structure may show the parent alone.", "data": [{"molecule": "Nc1ccccc1Oc1ccc(OCc2cc(F)ccc2F)cc1", "note": "[Compound 4, 2-[4-(2,5-Difluorobenzyloxy)phenoxy]aniline hydrochloride]", "values": [{"measurement": "remaining activity at 1 µM", "value": 27, "unit": "%"}]}, {"molecule": "Nc1ccccc1Oc1ccc(OCc2c(F)cccc2F)cc1", "note": "[Compound 5, 2-[4-(2,6-Difluorobenzyloxy)phenoxy]aniline hydrochloride]", "values": [{"measurement": "remaining activity at 1 µM", "value": 43, "unit": "%"}]}, {"molecule": "Nc1ccccc1Oc1ccc(OCc2cccc(F)c2F)cc1", "note": "[Compound 3, 2-[4-(2,3-Difluorobenzyloxy)phenoxy]aniline hydrochloride]", "values": [{"measurement": "remaining activity at 1 µM", "value": 38, "unit": "%"}]}, {"molecule": "CCOc1ccc(Oc2ccc(OCc3c(F)cccc3F)cc2)c(N)c1", "note": "[Compound 7, 2-[4-(2.6-Difluorobenzyloxy)phenoxy]-5-ethoxyaniline hydrochloride]", "values": [{"measurement": "remaining activity at 1 µM", "value": 33, "unit": "%"}]}, {"molecule": "Nc1ccccc1Oc1ccc(OCc2ccc(F)cc2F)cc1", "note": "[Compound 8, 2-[4-(2,4-Difluorobenzyloxy)phenoxy]aniline hydrochloride]", "values": [{"measurement": "remaining activity at 1 µM", "value": 47, "unit": "%"}]}, {"molecule": "CCOc1ccc(Oc2ccc(OCc3cc(F)ccc3F)cc2)c(N)c1", "note": "[Compound 6, 2-[4-(2.5-Difluorobenzyloxy)phenoxy]-5-ethoxyaniline hydrochloride]", "values": [{"measurement": "remaining activity at 1 µM", "value": 39, "unit": "%"}]}, {"molecule": "CCOc1ccc(Oc2ccc(OCc3cccc(F)c3F)cc2)c(N)c1", "note": "[Compound 10, 2-[4-(2,3-Difluorobenzyloxy)phenoxy]-5-ethoxyaniline hydrochloride]", "values": [{"measurement": "remaining activity at 1 µM", "value": 45, "unit": "%"}]}]}
